Assay results taken from the supplement of paper PMC6045584.
± gives the standard deviation of the averaged measurements.

Legend:
[1] = compound: C[C@@H](Oc1cc(-c2cnn(C3CCNCC3)c2)cnc1N)c1c(Cl)ccc(F)c1Cl; experiment: surviving fraction relative to DMSO-only wells; higher = less growth inhibition; conditions: exposure time: 5 days
Procedure, shortened: (§1)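 Log-phase tumour cells were seeded at 250–500 per well in 384-well plates and, from 24 hours after seeding, exposed continuously for five days to inhibitors at 0.5, 1, 5, 10, 50, 100, 500 and 1000 nM. Surviving fraction is CellTiter-Glo luminescence normalised to the median of DMSO-only wells. Luminescence was measured after 10 minutes at room temperature, and only lines screened three times with replicate Pearson r >0.7 and median Z' >0.3 were kept.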

[2] = compound: Oc1nc(-c2ccc(C(F)(F)F)cc2)nc2c1CSCC2 [XAV-939]; experiment: as above; conditions: exposure time: 5 days
Procedure, shortened: as §1

| Test System | surviving fraction ([1]; 0.5 nM) | surviving fraction ([1]; 1 nM) | surviving fraction ([1]; 5 nM) | surviving fraction ([1]; 50 nM) | surviving fraction ([1]; 100 nM) | surviving fraction ([1]; 500 nM) | surviving fraction ([1]; 1000 nM) | surviving fraction ([2]; 0.5 nM) | surviving fraction ([2]; 1 nM) | surviving fraction ([2]; 5 nM) | surviving fraction ([2]; 10 nM) | surviving fraction ([2]; 50 nM) | surviving fraction ([2]; 100 nM) | surviving fraction ([2]; 500 nM) | surviving fraction ([2]; 1000 nM) | surviving fraction ([1]; 10 nM) |
| --- | --- | --- | --- | --- | --- | --- | --- | --- | --- | --- | --- | --- | --- | --- | --- | --- |
| G292 BONE | 0.961 ± 0.025 | 0.971 ± 0.032 | 0.931 ± 0.088 | 0.948 ± 0.038 | 0.871 ± 0.011 | 0.564 ± 0.031 | 0.38 ± 0.01 | 0.788 ± 0.26 | 0.995 ± 0.045 | 0.96 ± 0.043 | 0.963 ± 0.066 | 0.818 ± 0.27 | 0.965 ± 0.04 | 0.917 ± 0.027 | 0.874 ± 0.046 |  |
| HCC38 BREAST | 0.862 ± 0.14 |  | 0.928 ± 0.18 | 1.09 ± 0.22 | 1.13 ± 0.23 |  | 0.66 ± 0.14 | 0.824 ± 0.32 | 0.996 ± 0.18 | 1.01 ± 0.2 | 1.07 ± 0.23 | 0.983 ± 0.034 | 0.925 ± 0.15 | 0.895 ± 0.085 | 0.855 ± 0.12 | 0.928 ± 0.16 |
| HCC70 BREAST |  | 0.95 ± 0.095 |  |  | 1.14 ± 0.12 | 0.964 ± 0.04 | 0.736 ± 0.034 | 1.02 ± 0.083 | 1.09 ± 0.11 | 1.07 ± 0.026 | 1.13 ± 0.067 | 1.13 ± 0.029 | 1.12 ± 0.11 | 0.871 ± 0.091 | 0.829 ± 0.12 |  |
| HMLE3 BREAST | 0.873 ± 0.031 | 0.829 ± 0.028 |  | 0.941 ± 0.063 | 0.843 ± 0.019 | 0.599 ± 0.051 | 0.38 ± 0.011 | 0.921 ± 0.048 | 0.956 ± 0.028 | 0.97 ± 0.036 | 0.969 ± 0.059 | 0.986 ± 0.047 | 0.984 ± 0.078 | 0.775 ± 0.054 | 0.734 ± 0.037 |  |
| HMT3552 BREAST |  |  |  | 1.17 |  | 0.393 | 0.211 | 1.1 | 1.12 | 1.1 | 1.02 | 1.18 | 1.1 | 1.07 | 1.09 |  |
| HS578T BREAST |  | 0.827 ± 0.12 | 0.845 ± 0.063 | 0.936 ± 0.1 | 0.85 ± 0.1 | 0.552 ± 0.13 | 0.563 ± 0.11 | 1.16 ± 0.15 | 1.03 ± 0.2 | 1.14 ± 0.064 | 1.33 ± 0.062 | 1.14 ± 0.13 | 1.21 ± 0.058 | 1.09 ± 0.069 | 0.972 ± 0.016 | 0.959 ± 0.16 |
